Results from patent US20070274956A1, “Plant Germination Inhibitor And Method Of Use Thereof” (priority 2004, published 2007).

System: Oryzias latipes var.
Test: Harm to fish grown in treated water
Type: in vivo
Settings: 10 males and 10 females grown in aqueous solution, 1×10^−2 g/l; one week
Procedure: Forty Oryzias latipes var. (20 males and 20 females) were divided into two groups (each group: 10 males and 10 females). One group was grown in an aqueous solution of the coloring matter xylindein (1×10^−2 g/l) and the other was grown in water in the presence of wood on which mycelia of Chlorociboria aeruginosa developed and which was rotten and stained blue.

## CCC[C@H]1Cc2c(c(O)c3c(=O)cc4oc5c6c(c(O)c7c(=O)cc8oc2c3c4c8c57)C(=O)O[C@@H](CCC)C6)C(=O)O1 [xylindein]
  anomaly in the fish: no anomaly was observed
